Data taken from patent publication US11613531B2, “Inhibitors of RHO associated coiled-coil containing protein kinase” (Kadmon Corporation, LLC, priority 2017, dated 2023).
Read-outs that look alike come from different tables or passages of the source.

Experiments:
[1] = biological target: Recombinant ROCK2 (amino acids 1-552) (Homo sapiens (Human), UniProt O75116); experiment: Z′-Lyte kinase assay, ROCK2; assay type: biochemical; details: for inhibition at 1 µM: 1 μM compound, read-out: ROCK2 % inh. @ [conc]
Experimental: Determination of Compound's ROCK Inhibitory Activity In Vitro (Z'Lyte Assay).
Recombinant ROCK1 (amino acids 1-535) and ROCK2 (amino acids 1-552) proteins were purchased from ThermoFisher Scientific. Compound's activities were measured by Z′-lyte kinase kit (ThermoFisher Scientific) and IC50 was calculated
In vitro activities for the compounds were measured with Z′-lyte kinase kit (ThermoFisher Scientific). The percent inhibition rate was calculated by normalizing the kinase activity value obtained with 1 μM compound treatment against DMSO control value and then applied to the formula, [1-(compound/DMSO)]×100%. IC50s were calculated using the nonlinear regression curve fit function of the GraphPad Prism software with kinase activities data measured with 9 points 2-fold serial dilution of compounds treatment. In cell pMLC IC50s were calculated with data obtained from A7R5 cell experiments. A7R5 cells were treated with 9 points 2-fold serial dilution of compounds and ppMlc (T18/S19) levels were determined to calculate cellular IC50 values of the compounds using the nonlinear regression curve fit function of the GraphPad Prism software. NIH3T3 cells stably expressing ACTA2-promoter-driven-luciferase were applied to measure ROCK compounds functional IC50s in cells. Cells were plated in 96 well plates to confluence and treated with 9 points serial dilution of compounds in combination with TGFβ1 for 24 hr. Luciferase activities were measured and compound's IC50s were calculated using the nonlinear regression curve fit function of the GraphPad Prism software.

[2] = test system: ppMlc (T18/S19) levels in A7R5 cells; experiment: A7R5 in-cell ELISA (pMLC); assay type: cell-based, Rat; details: Rattus norvegicus, A7R5, A7R5 cells; for inhibition at 1 µM: 1 μM compound; for inhibition at 1 µM / inhibition at 10 µM: read-out: pMLC % inh A7R5 @ [conc]; for inhibition at 10 µM: 10 μM compound; for IC50: ppMlc (T18/S19)
Outline: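 A7R5 rat aortic smooth muscle cells seeded 24 h, then treated 90 min with a 9-point 2-fold compound dilution series. Fixed cells probed for ppMlc (T18/S19) by colorimetric in-cell ELISA; cellular IC50 from nonlinear regression curve fit.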

[3] = 9 points 2-fold serial dilution

Sequence of Recombinant ROCK2 (amino acids 1-552) (O75116 1-552): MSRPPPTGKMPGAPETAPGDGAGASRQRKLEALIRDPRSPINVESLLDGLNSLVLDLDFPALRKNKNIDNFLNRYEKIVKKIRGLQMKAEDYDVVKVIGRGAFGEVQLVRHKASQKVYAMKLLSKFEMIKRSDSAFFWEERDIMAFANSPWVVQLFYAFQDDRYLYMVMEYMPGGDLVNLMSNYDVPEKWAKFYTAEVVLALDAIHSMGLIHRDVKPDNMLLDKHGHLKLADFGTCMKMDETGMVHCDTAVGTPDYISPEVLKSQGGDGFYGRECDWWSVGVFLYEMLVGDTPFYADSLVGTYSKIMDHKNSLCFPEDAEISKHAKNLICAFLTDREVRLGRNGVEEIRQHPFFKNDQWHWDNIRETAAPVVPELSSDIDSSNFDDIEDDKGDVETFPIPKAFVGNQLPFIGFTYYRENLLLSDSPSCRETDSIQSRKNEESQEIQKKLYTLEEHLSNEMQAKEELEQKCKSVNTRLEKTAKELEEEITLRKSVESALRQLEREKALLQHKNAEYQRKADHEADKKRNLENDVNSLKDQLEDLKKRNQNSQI

Compound	IC50 [1]	inhibition at 1 µM [1]	inhibition at 1 µM [2]	inhibition at 10 µM [2]	IC50 [1, 3]	IC50 [2]
Cc1cc(Nc2ccc3[nH]ncc3c2)nc(N2CCC3CNCC3CC2)n1 (stereo not drawn) [Example 132, N-(6-methyl-2-(octahydropyrrolo[3,4-d]azepin-6(1H)-yl)pyrimidin-4-yl)-1H-indazol-5-amine]	0.245 µM	81.8%	19.6%			
Cc1nc(N2CCNC(C)CC2)nc(Nc2ccc3[nH]ncc3c2)c1C (stereo not drawn) [Example 25, N-(5,6-dimethyl-2-(5-methyl-1,4-diazepan-1-yl)pyrimidin-4-yl)-1H-indazol-5-amine]		52.9%		48.3%		
CC1CN(c2nccc(Nc3ccc4[nH]ncc4c3)n2)C(C)CN1 (stereo not drawn) [Example 68, N-(2-(2,5-dimethylpiperazin-1-yl)pyrimidin-4-yl)-1H-indazol-5-amine]			35.4%		0.294 µM	1010 nM
Cc1nc(N2CCNC(C)C2)nc(Nc2ccc3[nH]ncc3c2)c1C (stereo not drawn) [Example 13, N-(5,6-dimethyl-2-(3-methylpiperazin-1-yl)pyrimidin-4-yl)-1H-indazol-5-amine]		58.1%		51.1%		1490 nM
CCC1CNCCN1c1ncc(F)c(Nc2ccc3[nH]ncc3c2)n1 (stereo not drawn) [Example 143, N-(2-(2-ethylpiperazin-1-yl)-5-fluoropyrimidin-4-yl)-1H-indazol-5-amine]		59.3%		49.8%		2150 nM
Cc1cc(Nc2ccc3[nH]ncc3c2)nc(N2CC3CCC(C2)N3)n1 [Example 119, N-(2-(3,8-diazabicyclo[3.2.1]octan-3-yl)-6-methylpyrimidin-4-yl)-1H-indazol-5-amine]		90.1%	17.7%			
c1cc2[nH]ncc2cc1Nc1nc(N2CCCNCC2)nc2c1CSC2 [Example 12, 2-(1,4-diazepan-1-yl)-N-(1H-indazol-5-yl)-5,7-dihydrothieno[3,4-d]pyrimidin-4-amine]		97.3%		95%		839 nM
Nc1nc(-c2ccc(Nc3ccnc(N4CCNCC4)n3)cc2)cs1 [Example 355, 4-(4-((2-(piperazin-1-yl)pyrimidin-4-yl)amino)phenyl)thiazol-2-amine]	> 10 µM			21.9%		
Fc1cnc(N2CC3CNC3C2)nc1Nc1ccc2[nH]ncc2c1 (stereo not drawn) [Example 174, N-(2-(3,6-diazabicyclo[3.2.0]heptan-3-yl)-5-fluoropyrimidin-4-yl)-1H-indazol-5-amine]	0.035 µM		26.3%			
c1ccc(CNC2CCCN(c3nccc(Nc4ccc5[nH]ncc5c4)n3)C2)cc1 (stereo not drawn) [Example 234, N-(2-(3-(benzylamino)piperidin-1-yl)pyrimidin-4-yl)-1H-indazol-5-amine]	1.8 µM			55.6%		
Cc1nc(N2CCNCC2)nc(Nc2ccc3[nH]ncc3c2)c1C [Example 197, N-(5,6-dimethyl-2-(piperazin-1-yl)pyrimidin-4-yl)-1H-indazol-5-amine]				53.8%	0.437 µM	581 nM
COc1cnc(N2CCNC(C(C)C)CC2)nc1Nc1ccc2[nH]ncc2c1 (stereo not drawn) [Example 47, N-(2-(5-isopropyl-1,4-diazepan-1-yl)-5-methoxypyrimidin-4-yl)-1H-indazol-5-amine]		33.1%		45.6%		
Cc1nc(N2CCNCC2C)nc(Nc2ccc3[nH]ncc3c2)c1C (stereo not drawn) [Example 27, N-(5,6-dimethyl-2-(2-methylpiperazin-1-yl)pyrimidin-4-yl)-1H-indazol-5-amine]		71.3%	16.8%			
CCC1CN(c2nc(C)c(C)c(Nc3ccc4[nH]ncc4c3)n2)CCN1 (stereo not drawn) [Example 14, N-(2-(3-ethylpiperazin-1-yl)-5,6-dimethylpyrimidin-4-yl)-1H-indazol-5-amine]		33.3%		48.9%		
Nc1nnc(-c2ccc(Nc3ccnc(N4CCNCC4)n3)cc2)s1 [Example 356, 5-(4-((2-(piperazin-1-yl)pyrimidin-4-yl)amino)phenyl)-1,3,4-thiadiazol-2-amine]	> 10 µM			6.59%		
c1cc(Nc2ccc(-c3cnc[nH]3)cc2)nc(N2CCNCC2)n1 [Example 351, N-(4-(1H-imidazol-5-yl)phenyl)-2-(piperazin-1-yl)pyrimidin-4-amine]	> 10 µM			7.8%		

Compound	IC50 [1]	inhibition at 1 µM [1]	inhibition at 1 µM [2]	inhibition at 10 µM [2]	IC50 [1, 3]	IC50 [2]
c1ccc2c(c1)C(C1CCCNC1)CN2c1nccc(Nc2ccc3[nH]ncc3c2)n1 (stereo not drawn) [Example 89, N-(2-(3-(piperidin-3-yl)indolin-1-yl)pyrimidin-4-yl)-1H-indazol-5-amine]		12.7%	20.1%			
COc1cnc(N2CCNC(C(C)C)C2)nc1Nc1ccc2[nH]ncc2c1 (stereo not drawn) [Example 51, N-(2-(3-isopropylpiperazin-1-yl)-5-methoxypyrimidin-4-yl)-1H-indazol-5-amine]		29.3%		39.4%		
c1ccc2c(Nc3ccc4[nH]ncc4c3)nc(N3CCCNCC3)nc2c1 [Example 6, 2-(1,4-diazepan-1-yl)-N-(1H-indazol-5-yl)quinazolin-4-amine]		85.7%		94.6%		1800 nM
Cc1cnc(N2CCCNCC2)nc1Nc1ccc(-c2cn[nH]c2)cc1 [Example 261, N-(4-(1H-pyrazol-4-yl)phenyl)-2-(1,4-diazepan-1-yl)-5-methylpyrimidin-4-amine]		74%		86%		1880 nM
O=c1cc(-c2ccc(Nc3ccnc(N4CCNCC4)n3)cc2)cc[nH]1 [Example 360, 4-(4-((2-(piperazin-1-yl)pyrimidin-4-yl)amino)phenyl)pyridin-2(1H)-one]	5.2 µM			1.69%		
Clc1cnc(N2CC3CCC(C2)N3)nc1Nc1ccc2[nH]ncc2c1 [Example 195, N-(2-(3,8-diazabicyclo[3.2.1]octan-3-yl)-5-chloropyrimidin-4-yl)-1H-indazol-5-amine]		66%	-3.1%		0.405 µM	
Clc1cnc(N2CC3CC(C2)N3)nc1Nc1ccc2[nH]ncc2c1 [Example 280, N-(2-(3,6-diazabicyclo[3.1.1]heptan-3-yl)-5-chloropyrimidin-4-yl)-1H-indazol-5-amine]	0.263 µM		26.6%			
CCC1CN(c2nc(C)c(C)c(Nc3ccc4[nH]ncc4c3)n2)CCCN1 (stereo not drawn) [Example 26, N-(2-(3-ethyl-1,4-diazepan-1-yl)-5,6-dimethylpyrimidin-4-yl)-1H-indazol-5-amine]		33.5%		39.9%		
CC1CN(c2ncc(F)c(Nc3ccc4[nH]ncc4c3)n2)C(C)CN1 (stereo not drawn) [Example 155, N-(2-(2,5-dimethylpiperazin-1-yl)-5-fluoropyrimidin-4-yl)-1H-indazol-5-amine]		82.1%	25%			
Cc1nc(N2CCCNC(C)C2)nc(Nc2ccc3[nH]ncc3c2)c1C (stereo not drawn) [Example 22, N-(5,6-dimethyl-2-(3-methyl-1,4-diazepan-1-yl)pyrimidin-4-yl)-1H-indazol-5-amine]		76.5%		54.2%		1390 nM
CC1CNCCN1c1ncc(Cl)c(Nc2ccc3[nH]ncc3c2)n1 (stereo not drawn) [Example 179, N-(5-chloro-2-(2-methylpiperazin-1-yl)pyrimidin-4-yl)-1H-indazol-5-amine]		77.6%		67.4%		1540 nM
Cc1cnc(N2CCNCC2)nc1Nc1ccc2[nH]ncc2c1 [Example 95, N-(5-methyl-2-(piperazin-1-yl)pyrimidin-4-yl)-1H-indazol-5-amine]		61%		46.7%		
c1cc(Nc2ccc3[nH]ncc3c2)nc(N2CCNC3(CC3)C2)n1 [Example 66, N-(2-(4,7-diazaspiro[2.5]octan-7-yl)pyrimidin-4-yl)-1H-indazol-5-amine]		86.3%	17.5%		0.38 µM	
COc1cccc(CN(C)C2CCCN(c3nccc(Nc4ccc5[nH]ncc5c4)n3)C2)c1 (stereo not drawn) [Example 242, N-(2-(3-((3-methoxybenzyl)(methyl)amino)piperidin-1-yl)pyrimidin-4-yl)-1H-indazol-5-amine]	0.747 µM			41.2%		
CC1CCNCCN1c1nccc(Nc2ccc3[nH]ncc3c2)n1 (stereo not drawn) [Example 240, N-(2-(7-methyl-1,4-diazepan-1-yl)pyrimidin-4-yl)-1H-indazol-5-amine]		84.5%		78.1%		1110 nM
Cc1nc(N2CCCNCC2)nc(Nc2ccc3[nH]ncc3c2)c1C [Example 8, N-(2-(1,4-diazepan-1-yl)-5,6-dimethylpyrimidin-4-yl)-1H-indazol-5-amine]		83.3%		89%		1600 nM
